Data as given in the supplement of paper PMC12513837.
± gives the standard deviation of the averaged measurements.

Compound: CC(=O)N1CCc2c(c(N3CCCc4cc(-c5cnn(C)c5)c(C(F)F)cc43)nn2C2CCC(CN3CCN(c4ccc5c(c4)C(=O)N(C4CCC(=O)NC4=O)C5=O)CC3)CC2)C1 [CBPD-409]
Assay: AUC of viability dose-response curve (relative to vehicle, 8 doses up to 10 µM) (fraction); higher = less sensitive (more viable); extreme values may be limits of the assay
Procedure: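 PRISM multiplexed pooled barcoded cell line viability screen at the Broad Institute, 887 cancer cell lines treated with CBPD-409 (p300/CBP PROTAC degrader) at 8 concentrations in threefold dilution, top dose 10 µM. The read-out is the area under the dose-response curve of relative viability versus vehicle (n=3). AUC < 0.3 is called strongly sensitive and AUC > 0.8 resistant.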

| Test System | AUC of viability dose-response curve |
| --- | --- |
| TFK1_BILIARY_TRACT | 0.717 |
| TGBC1TKB_BILIARY_TRACT | 1 |
| TGBC18TKB_LARGE_INTESTINE | 0.938 |
| TGBC52TKB_BILIARY_TRACT | 0.745 |
| TGW_AUTONOMIC_GANGLIA | 0.673 |
| THP1_HAEMATOPOIETIC_AND_LYMPHOID_TISSUE | 1 |
| TM31_CENTRAL_NERVOUS_SYSTEM | 0.826 |
| TM87_SOFT_TISSUE | 0.367 ± 0.19 |
| TOLEDO_HAEMATOPOIETIC_AND_LYMPHOID_TISSUE | 0.416 |
| TOV21G_OVARY | 0.644 |
| TOV112D_OVARY | 0.724 |
| TT1TKB_LARGE_INTESTINE | 1 |
| TT2609C02_THYROID | 0.775 |
| TTC442_SOFT_TISSUE | 0.911 |
| TTC549_SOFT_TISSUE | 0.52 |
| TTC642_SOFT_TISSUE | 0.541 |
| TTC709_SOFT_TISSUE | 0.23 |
| TTC1240_SOFT_TISSUE | 0.187 |
| TT_OESOPHAGUS | 0.566 |
| TT_THYROID | 0.15 |
| TUHR4TKB_KIDNEY | 1 |
| TYKNU_OVARY | 0.386 |
| U2OS_BONE | 1 |
| U87MG_CENTRAL_NERVOUS_SYSTEM | 0.732 |
| U118MG_CENTRAL_NERVOUS_SYSTEM | 0.983 |

| Test System | AUC of viability dose-response curve |
| --- | --- |
| U178_CENTRAL_NERVOUS_SYSTEM | 0.636 |
| U251MG_CENTRAL_NERVOUS_SYSTEM | 0.873 |
| U266B1_HAEMATOPOIETIC_AND_LYMPHOID_TISSUE | 0.784 |
| U343_CENTRAL_NERVOUS_SYSTEM | 1 |
| U937_HAEMATOPOIETIC_AND_LYMPHOID_TISSUE | 1 |
| U2904_HAEMATOPOIETIC_AND_LYMPHOID_TISSUE | 0.826 |
| U2940_HAEMATOPOIETIC_AND_LYMPHOID_TISSUE | 1 |
| U2973_HAEMATOPOIETIC_AND_LYMPHOID_TISSUE | 0.734 |
| UACC62_SKIN | 0.901 |
| UACC257_SKIN | 1 |
| UBLC1_URINARY_TRACT | 0.437 |
| ULA_HAEMATOPOIETIC_AND_LYMPHOID_TISSUE | 0.813 |
| UMRC3_KIDNEY | 0.929 |
| UMRC7_KIDNEY | 0.773 |
| UMUC1_URINARY_TRACT | 0.703 |
| UMUC5_URINARY_TRACT | 0.749 |
| UMUC6_URINARY_TRACT | 0.585 |
| UMUC7_URINARY_TRACT | 1 |
| UMUC10_URINARY_TRACT | 0.511 |
| UMUC11_URINARY_TRACT | 0.736 |
| UMUC13_URINARY_TRACT | 0.199 |
| UO31_KIDNEY | 1 |
| UPCISCC072_UPPER_AERODIGESTIVE_TRACT | 0.625 |
| UPCISCC111_UPPER_AERODIGESTIVE_TRACT | 1 |
| UPCISCC116_UPPER_AERODIGESTIVE_TRACT | 0.827 |

| Test System | AUC of viability dose-response curve |
| --- | --- |
| UW228_CENTRAL_NERVOUS_SYSTEM | 1 |
| VAESBJ_SOFT_TISSUE | 0.8 |
| VAL_HAEMATOPOIETIC_AND_LYMPHOID_TISSUE | 0.56 |
| VMCUB1_URINARY_TRACT | 0.443 |
| VMRCRCW_KIDNEY | 0.631 |
| VMRCRCZ_KIDNEY | 0.584 |
| WAOSEL_HAEMATOPOIETIC_AND_LYMPHOID_TISSUE | 0.826 |
| WERIRB1_AUTONOMIC_GANGLIA | 1 |
| WM88_SKIN | 0.893 |
| WM793_SKIN | 0.949 |
| WM983B_SKIN | 0.774 |
| WM1799_SKIN | 0.639 |
| WM2664_SKIN | 0.988 |
| WSUDLCL2_HAEMATOPOIETIC_AND_LYMPHOID_TISSUE | 0.505 |
| YAPC_PANCREAS | 1 |
| YD8_UPPER_AERODIGESTIVE_TRACT | 0.641 |
| YD10B_UPPER_AERODIGESTIVE_TRACT | 1 |
| YD15_SALIVARY_GLAND | 0.397 |
| YD38_UPPER_AERODIGESTIVE_TRACT | 0.559 |
| YH13_CENTRAL_NERVOUS_SYSTEM | 0.75 |
| YKG1_CENTRAL_NERVOUS_SYSTEM | 0.584 |
| YSCCC_BILIARY_TRACT | 0.853 |
| ZR751_BREAST | 0.411 |
